Measured values reported in patent US9132129B2, “Antiviral compounds” (KATHOLIEKE UNIVERSITEIT LEUVEN, priority 2010, dated 2015).

Key:
Assay type in all cases: cell-based
[1] = MT4 cytotoxicity in mock-infected cells (MTT); conditions: human, mock-infected MT-4 cells
Description: A rapid and automated assay procedure was used for the in vitro evaluation of anti-HIV agents. An HTLV-1 transformed T4-cell line MT-4, which was previously shown to be highly susceptible to and permissive for HIV infection, served as the target cell line. Inhibition of the HIV-induced cytopathogenic effect was used as the end point. The viability of both HIV- and mock-infected cells was assessed spectrophotometrically via in situ reduction of 3-(4,5-dimethylthiazol-2-yl)-2,5-diphenyltetrazolium bromide (MTT). […] The percent protection achieved by the compound in HIV-infected cells was calculated by the following formula: […]
Examples of inhibition of cell proliferation by particular compounds of the invention can be found by looking at the respective CC50 values in the MT-4 cell line.
(§1) Cells: MT-4 cells (Miyoshi et al., 1982) were grown and maintained in RPMI 1640medium supplemented with 10% heat-inactivated fetal calf serum, 2 mM I-glutamine, 0.1% sodium bicarbonate, and 20æg of gentamicin per ml.

HIV-1(NL4.3) = test: MT4 based cytopathic effect assay (anti-HIV activity); conditions: Human immunodeficiency virus 1, MT4; HIV-infected MT-4 cells, MTT, 50% protection
Description: MT4 based Cytopathic Effect Assay
A rapid and automated assay procedure was used for the in vitro evaluation of anti-HIV agents. An HTLV-1 transformed T4-cell line MT-4, which was previously shown to be highly susceptible to and permissive for HIV infection, served as the target cell line. Inhibition of the HIV-induced cytopathogenic effect was used as the end point. The viability of both HIV- and mock-infected cells was assessed spectrophotometrically via in situ reduction of 3-(4,5-dimethylthiazol-2-yl)-2,5-diphenyltetrazolium bromide (MTT). […] The percent protection achieved by the compound in HIV-infected cells was calculated by the following formula:
[formula] whereby (ODT)HIV is the optical density measured with a given concentration of the test compound in HIV-infected cells; (ODC)HIV is the optical density measured for the control untreated HIV-infected cells; (ODC)MOCK is the optical density measured for the control untreated mock-infected cells; all optical density values were determined at 540 nm. […] The ratio of CC50 to EC50 was defined as the selectivity index (SI).
as §1
Viruses: The HIV-1(NL4.3) strain (Adachi et al., 1986) is a molecular clone obtained from the National Institutes of Health (Bethesda, Md.).

in vitro = conditions: human
Description: The MT-2 based antiviral assay requires a separate cytotoxicity assessment of the compounds. This was performed using a 3 day MT-2 cytotoxicity assay as follows:
3 Day MT2 Cytotoxicity Assay (S8738E)
The assay is designed to test whether or not compounds have cytotoxic activity in MT2 cells by measuring the viability of these cells in the presence of compounds. The assay is carried out by adding MT2 assay plates containing serial dilutions of the compounds to be screened. After 3 days incubation, the viability of the cells remaining in the plates is assayed using the commercially available reagent CellTiter-Glo (Promega Ltd).

[2] = system: HIV-1 virus (NL4.3 strain); test: MT-2 based antiviral assay (S8737E); conditions: Human immunodeficiency virus 1, 72 h; MT2 cells, 3 days, JC53BL β-Gal reporter readout
Source text: MT-2 Based Antiviral Assay (S8737E)
Much like the MT-4 based cytopathic effect assay, this assay is designed to determine the effects of small molecules on the replication of HIV-1 in the lymphobastoid cell line, MT2, and is able to detect the antiviral effect of compounds acting at any stage of the HIV-1 replication cycle. The assay, along with its associated cytotoxicity assay, was described in detail in 2005 in a paper by Cao et al (Antimicrobial Agents and Chemotherapy 2005; 49(9), p 3833-3841).
Briefly; MT2 cells are infected with the HIV-1 virus (NL4.3 strain) and transferred to assay plates containing serial dilutions of compounds to be tested. The assay plates are incubated for 3 days (MT2) to allow for several rounds of viral replication/infection to take place. At the end of this time, supernatant is transferred into new plates containing JC53BL cells.
JC53BL cells express CXCR4, CCR5 and CD4 receptors, and HIV-1-LTR-β-Gal. Under normal culture conditions undetectable levels of β-Galactosidase are expressed, but in the presence of HIV-1, the viral Tat protein is able to activate the HIV-1-LTR in the JC53BL cells resulting in the increased expression of the β-Gal enzyme. The expression can be measured using the ‘FluorAce β-Galactosidase reporter’ assay. The levels of β-Gal are directly proportional to the levels of Tat (up to a threshold) allowing virus quantification. Compounds that inhibit virus replication will give rise to a reduced signal and a dose-response curve for each compound can be generated. This is then used to determine the IC50 for each compound, a measure of the compound's potency, in a manner similar to the MT-4 based cytopathic effect assay.

| EC50 (HIV-1(NL4.3)) [µM] | SMILES | CC50 [1] [µM] | CC50 at 3 days (in vitro) [µM] | EC50 [2] [µM] |
| --- | --- | --- | --- | --- |
| 1.45 | CCCC(C(=O)O)c1c(C)nc2cc3c(cc2c1-c1ccc(C)cc1)CCCC3 (centres unmarked) [Cpd001, 2-(-2-methyl-4-p-tolyl-6,7,8,9-tetrahydrobenzo[g]quinolin-3-yl)pentanoic acid] | 92 | – | – |
| 1.45 | CCCC(C(=O)O)c1c(C)nc2ccc3c(c2c1-c1ccc(C)cc1)CCCC3 (centres unmarked) [Cpd003, 2-(3-methyl-1-4-p-tolyl-7,8,9,10-tetrahydrobenzo[f]quinolin-2-yl)pentanoic acid] | 92 | – | – |
| 4.5 | CCCC(C(=O)O)c1c(C)nc2ccc3c(c2c1-c1ccc(C)cc1)CCC3 (centres unmarked) [Cpd023, 2-(3-methyl-1-p-tolyl-8,9-dihydro-7H-cyclopenta[f]quinolin-2-yl)pentanoic acid] | 114 | – | – |

More lines, now with the values behind:

| SMILES | EC50 (HIV-1(NL4.3)) [µM] | CC50 [1] [µM] | CC50 at 3 days (in vitro) [µM] | EC50 [2] [µM] |
| --- | --- | --- | --- | --- |
| Cc1ccc(-c2c(C(OC(C)(C)C)C(=O)O)c(C)nc3cc4c(cc23)CCCC4)cc1 (centres unmarked) [Cpd002, tert-butoxy-(2-methyl-4-p-tolyl-6,7,8,9-tetrahydro-benzo[g]quinolin-3-yl)-acetic acid] | – | – | > 10 | 0.46 |
| CCCC(C(=O)O)c1c(C)nc2cc3c(cc2c1-c1ccc(C)cc1)CCC3 (centres unmarked) [Cpd012, 2-(2-methyl-4-p-tolyl-7,8-dihydro-6H-cyclopenta[g]quinolin-3-yl)pentanoic acid] | 0.53 | 82 | > 20 | 1.68 |
| CCCC(C(=O)O)c1c(C)nc2c3ccccc3nn2c1-c1ccc(C)cc1 (centres unmarked) [Cpd047, 2-(2-methyl-4-p-tolylpyrimido[1,2-b]indazol-3-yl)pentanoic acid] | – | 200 | – | > 20 |
